Measured values: the CheMixHub viscosity set
Values joined by “and” are separate entries in the source; they are usually repeats but may differ in a detail not shown here. Equal values may be shown once. ± gives the uncertainty stated by the source.

CCCCCCCCCCCC
Settings	viscosity
298.15 K, 101 kPa	1.34 ± 0.06 mPa·s and 1.338 ± 0.012 mPa·s and 1.336 ± 0.032 mPa·s
298.15 K, 101.33 kPa	1.324 ± 0.017 mPa·s
298.15 K, 103 kPa	1.291 ± 0.041 mPa·s
303.15 K, 101.33 kPa	1.215 ± 0.03 mPa·s and 1.209 ± 0.027 mPa·s
307.52 K, 101.3 kPa	1.159 ± 0.014 mPa·s
307.57 K, 101.3 kPa	1.159 ± 0.014 mPa·s
308.15 K, 100 kPa	1.115 ± 0.11 mPa·s and 1.157 ± 0.014 mPa·s
308.15 K, 101 kPa	1.112 ± 0.014 mPa·s and 1.125 ± 0.028 mPa·s
308.15 K, 103 kPa	1.086 ± 0.041 mPa·s
313.15 K, 101 kPa	1.039 ± 0.026 mPa·s
313.15 K, 101.33 kPa	1.025 ± 0.026 mPa·s
318.15 K, 100 kPa	0.986 ± 0.13 mPa·s
318.15 K, 101 kPa	0.935 ± 0.012 mPa·s and 0.965 ± 0.024 mPa·s
318.15 K, 101.33 kPa	0.935 ± 0.012 mPa·s
318.15 K, 103 kPa	0.936 ± 0.041 mPa·s
323.15 K, 100 kPa	0.9146 ± 0.037 mPa·s and 0.921 ± 0.13 mPa·s
323.15 K, 101 kPa	0.898 ± 0.023 mPa·s
323.15 K, 102 kPa	0.917 ± 0.021 mPa·s (2×) and 0.919 ± 0.021 mPa·s

CCCCCCCCCCCC[P+](CC)(CC)CC.N#Cc1ccc[n-]1
100 kPa
Settings	viscosity
293.15 K	422 ± 62 mPa·s and 423 ± 62 mPa·s
298.15 K	296 ± 43 mPa·s and 310 ± 45 mPa·s
303.15 K	212 ± 30 mPa·s and 214 ± 31 mPa·s
313.15 K	117 ± 17 mPa·s and 114 ± 16 mPa·s

CCCCCCCCCCO
Settings	viscosity
293.15 K, 100 kPa	14.27 ± 0.2 mPa·s
293.15 K, 101 kPa	13.04 ± 0.067 mPa·s
293.15 K, 101.33 kPa	14.55 ± 0.34 mPa·s
298.15 K, 101.33 kPa	11.57 ± 1.2 mPa·s
300 K, 101 kPa	10.3 ± 0.13 mPa·s
303.15 K, 100 kPa	9.708 ± 0.13 mPa·s
303.15 K, 101.3 kPa	8.835 ± 0.087 mPa·s
308 K, 101 kPa	7.646 ± 0.054 mPa·s
308.15 K, 100 kPa	8.108 ± 0.11 mPa·s
308.15 K, 101.3 kPa	8.39 ± 0.18 mPa·s
308.15 K, 101.33 kPa	7.918 ± 0.84 mPa·s
310 K, 101 kPa	7.09 ± 0.09 mPa·s
313 K, 101 kPa	6.396 ± 0.17 mPa·s
313.15 K, 100 kPa	6.846 ± 0.19 mPa·s
313.15 K, 101 kPa	6.846 ± 0.21 mPa·s and 7.929 ± 1.6 mPa·s and 6.845 ± 0.048 mPa·s
313.15 K, 101.3 kPa	6.955 ± 0.072 mPa·s
313.15 K, 101.33 kPa	6.955 ± 0.048 mPa·s and 6.955 ± 0.04 mPa·s and 6.955 ± 0.072 mPa·s
318.15 K, 100 kPa	5.879 ± 0.16 mPa·s and 5.771 ± 0.079 mPa·s and 5.785 ± 0.18 mPa·s
318.15 K, 101.3 kPa	5.878 ± 0.13 mPa·s
320 K, 101 kPa	5 ± 0.06 mPa·s
323.15 K, 100 kPa	4.918 ± 0.067 mPa·s and 4.94 ± 0.15 mPa·s

CCn1cc[n+](C)c1.F[B-](F)(F)F
viscosity
Settings	293.15 K	298.15 K	303.15 K	313.15 K	323.15 K
100 kPa	50.54 ± 5.1 mPa·s	41.45 ± 4.2 mPa·s	34.53 ± 3.5 mPa·s	24.83 ± 2.5 mPa·s	18.62 ± 1.9 mPa·s
101 kPa	–	36.8 ± 6.5 mPa·s	28 ± 0.45 mPa·s and 28 ± 2.8 mPa·s	20.41 ± 0.33 mPa·s and 20.41 ± 2.1 mPa·s	15.35 ± 0.25 mPa·s and 15.35 ± 1.5 mPa·s

Cc1ccc(Cl)cc1
viscosity
Settings	298.15 K	303.15 K	308.15 K	313.15 K	318.15 K
100 kPa	0.83 ± 0.018 mPa·s	0.782 ± 0.05 mPa·s	0.724 ± 0.05 mPa·s and 0.737 ± 0.016 mPa·s	0.682 ± 0.05 mPa·s	0.632 ± 0.05 mPa·s and 0.662 ± 0.014 mPa·s
101 kPa	–	0.782 ± 0.013 mPa·s and 0.782 ± 0.021 mPa·s	0.728 ± 0.02 mPa·s	0.684 ± 0.012 mPa·s and 0.682 ± 0.019 mPa·s	0.632 ± 0.018 mPa·s
